Measured values reported in PMC4148173 (Journal of Medicinal Chemistry, 2014).

What was measured:
[1] = biological target: human D2LR (Homo sapiens, UniProt P14416); assay: [125I]IABN displacement binding, HEK cell membranes expressing human D2LR
[2] = biological target: T1, human D3R (Homo sapiens, UniProt P35462); assay: [125I]IABN displacement binding, HEK cell membranes expressing human D3R
[3] = biological target: T1, human D3R; assay: β-Arrestin-2 recruitment assay; format: cell-based; settings: for D3R IC50 ± SEM: inhibition of (+)-PD128907-induced arrestin translocation in U2OS cells expressing D3R; for selectivity ratio (D2R IC50)/(D3R IC50): β-arrestin-2 recruitment antagonist selectivity
[4] = biological target: T1, human D3R; assay: [35S]GTPγS binding assay, CHO-hD3 membranes; format: biochemical; settings: for stimulation of [35S]GTPγS binding, D3R: agonist test; for inhibition of basal [35S]GTPγS binding at D3R: up to 1 μM concentration; for inhibition at 10 µM: read-out: inhibition of D3R basal [35S]GTPγS binding
[5] = biological target: human D2R (Homo sapiens, UniProt P14416); assay: [35S]GTPγS binding assay, CHO-hD2 membranes; format: biochemical; settings: for stimulation of [35S]GTPγS binding, D2R: agonist test; for inhibition of basal [35S]GTPγS binding at D2R: up to 1 μM concentration
Sequence of human D2R (P14416 whole entry): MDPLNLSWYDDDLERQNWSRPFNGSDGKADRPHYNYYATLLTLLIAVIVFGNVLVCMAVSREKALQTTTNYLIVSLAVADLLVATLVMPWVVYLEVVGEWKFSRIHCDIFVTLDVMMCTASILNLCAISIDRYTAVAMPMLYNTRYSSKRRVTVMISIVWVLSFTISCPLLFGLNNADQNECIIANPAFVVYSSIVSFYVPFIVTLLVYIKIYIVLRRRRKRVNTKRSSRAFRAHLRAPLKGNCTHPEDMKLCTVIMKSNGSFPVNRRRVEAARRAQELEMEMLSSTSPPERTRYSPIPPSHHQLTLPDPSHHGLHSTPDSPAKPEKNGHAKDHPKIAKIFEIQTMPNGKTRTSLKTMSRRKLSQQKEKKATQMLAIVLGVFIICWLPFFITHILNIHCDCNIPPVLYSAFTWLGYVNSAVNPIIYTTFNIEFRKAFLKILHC

[6] = tested on: rats; settings: cited from earlier work
[7] = biological target: human D2L receptors (Homo sapiens, UniProt P14416); assay: β-Arrestin-2 recruitment assay; format: cell-based; settings: standard agonist
Sequence of human D2L receptors (P14416 whole entry): as above

T1 sequence (P35462 whole entry): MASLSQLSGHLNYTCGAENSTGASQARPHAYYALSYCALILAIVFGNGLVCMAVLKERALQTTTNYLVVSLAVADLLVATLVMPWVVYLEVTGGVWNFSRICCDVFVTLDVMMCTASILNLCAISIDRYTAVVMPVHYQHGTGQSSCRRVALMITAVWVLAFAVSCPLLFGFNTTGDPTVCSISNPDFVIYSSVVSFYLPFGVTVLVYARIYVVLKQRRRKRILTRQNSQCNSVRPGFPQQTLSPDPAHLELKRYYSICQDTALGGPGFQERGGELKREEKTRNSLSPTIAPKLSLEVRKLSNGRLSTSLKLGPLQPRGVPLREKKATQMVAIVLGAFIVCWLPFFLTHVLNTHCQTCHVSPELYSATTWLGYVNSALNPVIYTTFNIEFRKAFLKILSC
Sequence of human D2LR (P14416 whole entry): as the sequence (P14416 whole entry) above

SMILES | D3R IC50 ± SEM [3] | Kb [4] [nM] | stimulation of [35S]GTPγS binding, D3R [4] | inhibition of basal [35S]GTPγS binding at D3R [4] | Kb [5] [nM] | stimulation of [35S]GTPγS binding, D2R [5] | inhibition of basal [35S]GTPγS binding at D2R [5] | inhibition at 10 µM [4] [%] | other results
CC(C)(C)c1nc(N2CCN(CCCCNC(=O)c3cn4ccccc4n3)CC2)cc(C(F)(F)F)n1 [Compound 25, N-(4-(4-(2-(tert-Butyl)-6-(trifluoromethyl)pyrimidin-4-yl)piperazin-1-yl)butyl)imidazo[1,2-a]pyridine-2-carboxamide] | subnanomolar | 1.3 ± 0.4 | did not stimulate | less than 30% | 111 ± 25 | did not stimulate | less than 30% | 40 to 60 | cocaine self-administration, cocaine reward, cue-induced reinstatement of cocaine-seeking, cocaine-induced place preference ([6]; rat models): significantly attenuating; effect on food reward or spontaneous locomotor activity ([6]; rats, at doses decreasing cocaine effects): no effect; cocaine reward, cocaine seeking, preference for cocaine-associated environments, and cocaine induced locomotor activity ([6]; rats): significant decreases; selectivity ratio (D2R Ki/D3R Ki) ([2]; Table 1, binding selectivity): > 100; selectivity ratio (D2R IC50)/(D3R IC50) [3]: > 400
CC(C)(C)c1nc(N2CCN(CCCCNC(=O)c3cc4ccccc4[nH]3)CC2)cc(C(F)(F)F)n1 [Compound 26, N-(4-(4-(2-(tert-Butyl)-6-(trifluoromethyl)pyrimidin-4-yl)piperazin-1-yl)butyl)-1H-indole-2-carboxamide] |  |  |  |  |  |  |  |  | lower binding potency at D2R ([1]; compared to compound 25): 1.8 fold; lower binding potency at D3R ([2]; compared to compound 25): 2.6 fold
CC(C)(C)c1nc(N2CCN(CCCCNC(=O)c3cn4ccncc4n3)CC2)cc(C(F)(F)F)n1 [Compound 30, N-(4-(4-(2-(tert-Butyl)-6-(trifluoromethyl)pyrimidin-4-yl)piperazin-1-yl)butyl)imidazo[1,2-a]pyrazine-2-carboxamide] |  | 0.33 ± 0.05 | did not stimulate | less than 30% | 25 ± 6 | did not stimulate | less than 30% | 40 to 60 | 
CC(C)(C)c1nc(N2CCN(CCCCNC(=O)[C@H]3CC[C@H](c4ccccc4)CC3)CC2)cc(C(F)(F)F)n1 [Compound 39, trans-N-(4-(4-(2-(tert-Butyl)-6-(trifluoromethyl)pyrimidin-4-yl)piperazin-1-yl)butyl)-4-phenylcyclohexanecarboxamide] |  |  | did not stimulate | less than 30% |  | did not stimulate | less than 30% | 40 to 60 | 
CCCN1CCO[C@@H]2c3cc(O)ccc3OC[C@H]21 [PD128907, reference compound] |  |  |  |  |  |  |  |  | agonist EC80 dose, D3R ([3]; β-arrestin recruitment, standard agonist): 8 nM
CCCN1C[C@H](CSC)C[C@@H]2c3cccc4[nH]cc(c34)C[C@H]21 [pergolide] |  |  |  |  |  |  |  |  | agonist EC80 dose, D2R [7]: 6 nM

Continued, in another order:

D3R IC50 ± SEM [3] | SMILES | Kb [4] [nM] | stimulation of [35S]GTPγS binding, D3R [4] | inhibition of basal [35S]GTPγS binding at D3R [4] | Kb [5] [nM] | stimulation of [35S]GTPγS binding, D2R [5] | inhibition of basal [35S]GTPγS binding at D2R [5] | inhibition at 10 µM [4] [%] | other results
subnanomolar | COc1ccccc1N1CCN(CCCCNC(=O)c2cn3ccccc3n2)CC1 [Compound 7, N-(4-(4-(2-Methoxyphenyl)piperazin-1-yl)butyl)imidazo[1,2-a]pyridine-2-carboxamide] |  |  |  |  |  |  |  | higher affinity at D2R ([1]; compared to compound 6): ~10 fold; enhancement in affinity at the D3R ([2]; compared to compound 6): ~3 fold
subnanomolar | O=C(NCCCCN1CCN(c2cccc(Cl)c2Cl)CC1)c1cn2ccccc2n1 [Compound 8, N-(4-(4-(2,3-Dichlorophenyl)piperazin-1-yl)butyl)imidazo[1,2-a]pyridine-2-carboxamide] | 0.0038 ± 0.0013 | did not stimulate | less than 30% | 1.1 ± 0.2 | did not stimulate | less than 30% |  | selectivity ratio (D2R IC50)/(D3R IC50) [3]: > 400
